Measured values from PubChem BioAssay (NCI).
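Protocol summary: plate cells (96-well), add compound at 5 concentrations, incubate 48 h, interpolate endpoints linearly. GI50 is the concentration that inhibits growth by half. The concentration for full growth arrest is given as TGI.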

How the values were obtained:
Assay in all cases: NCI anticancer screen, dose series, 48 h
MALME-3M melanoma = system: MALME-3M melanoma
KM12 colon = system: KM12 colon
CCRF-CEM leukemia = system: CCRF-CEM leukemia
HCT-15 colon = system: HCT-15 colon
TK-10 renal = system: TK-10 renal
M14 melanoma = system: M14 melanoma
OVCAR-8 ovarian = system: OVCAR-8 ovarian
OVCAR-3 ovarian = system: OVCAR-3 ovarian
DU-145 prostate = system: DU-145 prostate
NCI/ADR-RES ovarian = system: NCI/ADR-RES ovarian

SMILES | TGI (MALME-3M melanoma) [µM] | TGI (KM12 colon) [µM] | TGI (CCRF-CEM leukemia) [µM] | TGI (HCT-15 colon) [µM] | TGI (TK-10 renal) [µM] | TGI (M14 melanoma) [µM] | TGI (OVCAR-8 ovarian) [µM] | TGI (OVCAR-3 ovarian) [µM] | TGI (DU-145 prostate) [µM] | GI50 (MALME-3M melanoma) [µM] | GI50 (KM12 colon) [µM] | GI50 (NCI/ADR-RES ovarian) [µM] | TGI (NCI/ADR-RES ovarian) [µM] | GI50 (HCT-15 colon) [µM] | GI50 (TK-10 renal) [µM] | GI50 (DU-145 prostate) [µM] | GI50 (M14 melanoma) [µM] | GI50 (OVCAR-8 ovarian) [µM] | GI50 (OVCAR-3 ovarian) [µM] | GI50 (CCRF-CEM leukemia) [µM]
Cc1ccc2oc(=O)cc(CC(=O)O)c2c1 | > 100 | > 100 | > 100 | > 100 | > 100 | > 100 | > 100 | > 100 | – | – | – | – | – | – | – | – | – | – | – | –
CCCCN1C(=O)C2c3[nH]c4ccccc4c3C3CCCCC3C2C1=O (mixture of isomers) | – | – | 37.5 | > 100 | 33.9 | 42.8 | 58.8 | 28.9 | – | – | – | – | – | – | – | – | – | – | – | –
CN(C)C(=O)C(NCCO)c1ccccc1 (stereo unspecified) | – | > 100 | – | > 100 | > 100 | > 100 | > 100 | > 100 | > 100 | – | – | – | – | – | – | – | – | – | – | –
O=c1/c(=C/c2ccccc2O)sc2nc3ccccc3n12 | > 100 | – | 45.6 | 49.8 | > 100 | > 100 | > 100 | 98.7 | – | – | – | – | – | – | – | – | – | – | – | –
N=C(N)c1ccc(CS(=O)(=O)F)cc1 | > 100 | > 100 | – | > 100 | > 100 | > 100 | > 100 | > 100 | > 100 | > 100 | > 100 | > 100 | > 100 | > 100 | > 100 | > 100 | > 100 | > 100 | > 100 | –
COc1cccc(-c2cc(C(=O)Nc3ccc(Cl)cc3)nc(N)n2)c1 | > 100 | > 100 | > 100 | > 100 | > 100 | > 100 | > 100 | > 100 | – | – | – | – | – | – | – | – | – | – | – | –
OCC(O)C(O)C(O)c1nn[nH]n1 (stereo unspecified) | > 100 | > 100 | > 100 | > 100 | – | > 100 | > 100 | > 100 | – | – | – | – | – | – | – | – | – | – | – | –
CN1C(=O)C(C)(C)NS1(=O)=O | > 100 | > 100 | > 100 | > 100 | > 100 | > 100 | > 100 | > 100 | – | – | – | – | – | – | – | – | – | – | – | –
CCOc1cccc2sc(N)nc12 | > 100 | > 100 | – | > 100 | > 100 | > 100 | > 100 | > 100 | – | – | – | – | – | – | – | – | – | – | – | –
CCOC(=O)NC(=O)c1cn(CC(=O)NCC(=O)NCC(=O)N2CCN(CCn3c(C)nc(C(N)=O)c3N)CC2)c(=O)[nH]c1=O | > 100 | > 100 | > 100 | > 100 | > 100 | > 100 | > 100 | – | – | – | – | – | – | – | – | – | – | – | – | –
CC1(OCc2ccccc2)C(=O)N2C1N(C(=O)OCc1ccccc1)CC2(C)C (stereo unspecified) | > 100 | – | > 100 | > 100 | > 100 | > 100 | > 100 | > 100 | – | – | – | – | – | – | – | – | – | – | – | –
CN(C(=N)c1ccccc1)c1ccccc1 | – | > 100 | > 100 | > 100 | > 100 | > 100 | > 100 | > 100 | – | – | – | – | – | – | – | – | – | – | – | –
O=C1C2c3[nH]c4ccccc4c3C3CCC(c4ccccc4)CC3C2C(=O)N1c1ccccc1 (stereo unspecified) | > 100 | > 100 | > 100 | > 100 | > 100 | > 100 | > 100 | > 100 | – | – | – | – | – | – | – | – | – | – | – | –
Clc1cc(Cl)cc(C2SCc3nc4ccccc4n32)c1 (stereo unspecified) | 62.6 | 37.3 | 70.6 | – | 70.2 | – | 33.2 | 38.3 | – | – | – | – | – | – | – | – | – | – | – | –
N#CC1=C(c2ccccc2)NN(Cc2ccccc2)C(c2ccc(Cl)cc2)CC1=O (stereo unspecified) | – | 82.1 | > 100 | 90.6 | > 100 | – | – | – | – | – | – | – | – | – | – | – | – | – | – | –
NC(N)=NS(=O)(=O)c1ccc(NC(=O)c2cccn3c(=O)c4ccccc4nc23)cc1 | > 100 | 36 | 88 | – | > 100 | > 100 | > 100 | > 100 | – | – | – | – | – | – | – | – | – | – | – | –
O=C1C[C@@H]2[C@@H](C=CC23CC3)N1O | > 100 | > 100 | > 100 | – | > 100 | > 100 | > 100 | – | – | – | – | – | – | – | – | – | – | – | – | –
COc1cccc(-c2cc(=O)c3cc(C)c(C)c(C(=O)O)c3o2)c1 | > 100 | > 100 | > 100 | > 100 | > 100 | > 100 | > 100 | > 100 | – | – | – | – | – | – | – | – | – | – | – | –
CC(C)(C)c1cc(O)c2c(c1O)C(=O)CCC2 | – | – | > 100 | > 100 | > 100 | > 100 | > 100 | 76.5 | – | – | – | – | – | – | – | – | – | – | – | –
COc1ccc(-c2cc(=O)c3c(OC)c(O)c(OC)cc3o2)cc1 | > 100 | – | > 100 | > 100 | 94 | > 100 | > 100 | > 100 | > 100 | – | – | – | > 100 | – | – | – | – | – | – | –
COC(=O)CCC(=O)Nc1cccc(C(F)(F)F)c1 | > 100 | > 100 | > 100 | > 100 | > 100 | > 100 | > 100 | > 100 | – | – | – | – | – | – | – | – | – | – | – | –
COc1cc(-c2nn(-c3ccc(NC(=O)Nc4ccc(Cl)c(C(F)(F)F)c4)cc3)cc2-c2ccncc2)ccc1Cl | – | 2.87 | 7.01 | 3.22 | 13.2 | 3.63 | 7.83 | 3.59 | 7.52 | – | 1.36 | 2.12 | 7.85 | 1.44 | 3.06 | 2.47 | 1.74 | 2.03 | 1.57 | 1.42
COc1ccc(C(=C(C#N)C#N)c2ccc(OC)cc2)cc1 | – | > 100 | > 100 | > 100 | > 100 | > 100 | > 100 | > 100 | – | – | – | – | – | – | – | – | – | – | – | –
C=C(c1ccccc1)[C@@]1(O)CCCC[C@H]1NC(c1ccccc1)c1ccccc1 | 30.7 | 30.9 | 18.7 | 24.5 | 32.5 | 27.6 | 28.1 | 24.7 | – | – | – | – | – | – | – | – | – | – | – | –
CCCCCCCCCCCCCCCCCc1cc(Cl)nc(Cl)n1 | > 100 | > 100 | > 100 | > 100 | > 100 | > 100 | > 100 | > 100 | – | – | – | – | > 100 | – | – | – | – | – | – | –
